What was measured:
untreated mice ears = assay: Inflammatory potential on untreated mice ears (Study B, Day 1); type: in vivo, hairless outbred mice (Skh:hr-1 strain); conditions: 1.5 micromole per 10 microliter on untreated ears
Description: (§1) Acute inflammation is induced by the application of 4 nano mole of the antibiotic A-23187 to the ears of young, male, adult hairless outbred mice (Skh:hr-1 strain). Thereafter, one of the compounds AN-10, AMCF3-8, ACBXE-9, acryloyl AN-10, S-4-F and SAN-6 is applied to the affected ears and the degree of reduction in edema (inflammation) noted.
(§2) A second group of studies (Study B) is conducted on two consecutive days with two sets of mice (totalling 80 animals) received from the same shipment.
The first batch of 40 animals is divided into 8 groups of 5 each. […] The remaining two groups of 5 animals each serve as controls and their ears are dosed with A-23187 and acetone respectively.
(§3) The amount of each salicylamide compound applied is kept constant, for Days 1 and 2, at 1.5 micromole per 10 microliter of test solution. Sacrifice begins four hours after application A-23187, on both days, and the results are recorded. Table 2 summarizes the results of the regimen of testing involved with each one of the 30 animals in question on Day 2 with the remaining 10 animals serving as controls as already noted.

[1] = test system: inflammation of mice ears caused by antibiotic A-23187; assay: Reduction of A-23187-induced ear edema by ear weights, Examples 8-14; type: in vivo, hairless outbred mice (Skh:hr-1 strain); conditions: for Reduction in Edema (%), Study B: Day 2, 1.5 micromole per 10 microliter, A-23187 (4 nmole), sacrifice from 4 hours; for antiinflammatory activity (in words): under the test conditions of Table 2
Excerpt: as §1
The method used in the subject Examples differs from the method used in the preceding Examples (4 through 7) in two respects.
Secondly, in the expression of the data, the objective parameter of ear weights is used as the sole data source (for the reduction of edema) as erythematous responses are not recorded. Ear weights are determined by sacrificing the animals four hours after initial application of the antibiotic A-23187 or other control material by the use of CO2 gas. Thereafter, the ears are excised by cutting along the characteristic ridge readily discernible along the inner aspect of the ears. Wet and dry ear weights are used to determine the extent of the edema or inflammation present.
In Study A, 28 test animals are randomized into four treatment groups of seven each and subjected to the following ear treatment regimen:
Each animal is dosed with a treatment consisting of a 10 microliter quantity of the assigned test material solution (or pure acetone in the case of the animals of Group D) applied to the outer aspect of both ears, i.e., 10 microliter of test material per ear. The concentrations of the respective materials in acetone solution are such that a 10 microliter dose of a solution of the antibiotic A-23187 contains 4 nano mole of such antibiotic. The corresponding quantity in the case of the AN-10 in acetone solution is 1.5 micromole. The animals of Groups A and B are initially treated with the acetone solution of A-23187. In the case of the animals of Group B alone, 10 microliter of the acetone solution of AN-10 is applied to the affected ears 1/2 hour after the application of the above-mentioned quantity of a solution in acetone of the antibiotic A-23187. The animals of Group C receive a 10 microliter dose per ear of the AN-10 in acetone solution alone. The animals of Group D receive a dose of 10 microliter per ear of pure acetone. All the test subjects are sacrificed four hours after the application of A-23187 to the animals of Groups A and B or the other test materials in the case of the animals of Groups C and D. The results are summarized in Table 2 noted below.
as §2
On Day 2, using the second set of 40 mice, sub-divided into 8 groups of 5 each, the six compounds in question are applied as acetone solutions in the manner described under Study A to mice ears inflamed with A-23187 again, as described in Study A above. As with the studies conducted on Day 1, the remaining two groups of 5 animals each serve as controls and their ears are dosed with A-23187 and acetone respectively.
as §3

[2] = test system: inflammation of mice ears caused by calcium ionophore (A-23187); assay: Reduction of A-23187-induced ear inflammation (edema and erythema), Examples 4-7, each animal its own control; type: in vivo, male outbred hairless mice; conditions: for anti-inflammatory activity (in words): at the concentration used (1.5 micromole topical); for reduction of inflammation (reference anti-inflammatories): topical, 30 minutes after application of A-23187
Excerpt: In a group of 5 male outbred hairless mice, inflammation is induced on their ears by the topical application thereto of 4.0 nmole in acetone solution (total volume 10 microliter) of the known divalent calcium ionophore (antibiotic A-23187), which is derived from Streptomyces chartreusis and is a member of a known class of compounds showing ionophoric activity. See, e.g. Pressman, B. C., "Biological Applications of Ionophores", Ann. Rev. Biochem., 45, 501, 1976. […] See Marks, F., Furstenberger, G., and Kownatzki, E., "Prostaglandin E-mediated Mitogenic Stimulation of Mouse Epidermis in vivo by divalent cation ionophore A-23187 and by tumor promoter 12-O-tetradecanoyl phorbol-13-acetate, Cancer Res., 41, 696, 1981.
In each animal only one ear is treated, the other untreated ear serving as a control.
In Examples 4, 5 and 6 the compounds AN-10, APCF3-8 and AMCF3-8, respectively, are topically applied to the treated ears of different groups of five male outbred hairless mice 30 minutes following the topical application thereto of the ionophore A-23187. Specifically, 1.5 micromole of the amido compound in acetone solution (total volume 10 microliters) is applied topically to treated male outbred hairless mice ears 30 min. after topical application thereto of a calcium ionophore (A-23187, 4.0 nmole total volume to 10 microliter) in acetone. As already noted, in each case, each animal serves as its own control in that only one ear is subjected to said test regime while the other ear is left untouched. Erythema and edema are assessed 4 hrs. after application of the ionophore. In Control Example 7, 3,4',5-tribromosalicylanilide (TBS) is applied in the same manner.

[3] = single dose oral route, Osborne-Mendel white rats, sixteen females; cited from earlier work
mice backs (skin) = conditions: topical application to mice backs, in vivo tumor promotion studies; cited from earlier work
[4] = comparison; oral, rats; cited from earlier work
[5] = 1.5 micromole topical, 30 min after A-23187 (4.0 nmole), assessed 4 hrs after ionophore

SMILES | noticeable inflammation (inflammatory potential) (untreated mice ears) | Reduction in Edema (%), Study B ([1]; ear weights) [%] | antiinflammatory activity (in words) [1] | anti-inflammatory activity (in words) [2] | also measured
CCCCCCCCC(=O)c1ccc(O)c(C(=O)Nc2cccc(C(=O)OCC)c2)c1 [ACBXE-9] | none of the six compounds being tested cause any noticeable inflammation | 76 | significant antiinflammatory activity | – | –
CCCCCCCC(=O)c1ccc(O)c(C(=O)Nc2ccc(C(F)(F)F)cc2)c1 [APCF3-8] | – | – | – | effective anti-inflammatories | –
COc1ccc2c(c1)c(CC(=O)O)c(C)n2C(=O)c1ccc(Cl)cc1 [indomethacin] | – | – | – | – | reduction of inflammation (reference anti-inflammatories) [2]: reduction of inflammation
CCCCCCCCCC(=O)c1ccc(O)c(C(=O)Nc2ccc([N+](=O)[O-])cc2)c1 [AN-10] | none of the six compounds being tested cause any noticeable inflammation | 81 | significant antiinflammatory activity | effective anti-inflammatories | LD50 [3]: greater than 2000 mg./kg.; Reduction in Edema (%), Study A ([1]; Study A, 1.5 micromole per ear, 1/2 hour after A-23187 (4 nmole), sacrificed at 4 hours, ear weights): 55%
C=CC(=O)Oc1ccc(C(=O)CCCCCCCCC)cc1C(=O)Nc1ccc([N+](=O)[O-])cc1 [acryloyl AN-10] | none of the six compounds being tested cause any noticeable inflammation | 82 | significant antiinflammatory activity | – | –
CNc1ccc2oc(C[C@H]3O[C@@]4(CC[C@H]3C)O[C@H]([C@H](C)C(=O)c3ccc[nH]3)[C@H](C)C[C@H]4C)nc2c1C(=O)O [A-23187] | – | – | – | – | acute inflammation on treated ears after topical A-23187 ([2]; within 4 hours following topical application, time and dose dependent): Acute inflammation develops; skin irritation (mice backs (skin)): potent ability to cause skin irritation
C[C@]12CCC(=O)C=C1CC[C@@H]1[C@@H]2[C@@H](O)C[C@@]2(C)[C@H]1CC[C@]2(O)C(=O)CO [hydrocortisone] | – | – | – | – | reduction of inflammation (reference anti-inflammatories) [2]: reduction of inflammation
O=C(Nc1ccc(Br)cc1)c1cc(Br)cc(Br)c1O [TBS, 3,4',5-tribromosalicylanilide] | – | – | – | essentially inactive | Reduction in Edema (%) [2, 5]: 12%; Reduction in Erythema (%) [2, 5]: 35%
CCCCCCc1ccc(O)c(C(=O)Nc2ccc([N+](=O)[O-])cc2)c1 [SAN-6] | none of the six compounds being tested cause any noticeable inflammation | 59 | significant antiinflammatory activity | – | –
CCCCCCCC(=O)c1ccc(O)c(C(=O)Nc2cccc(C(F)(F)F)c2)c1 [AMCF3-8] | none of the six compounds being tested cause any noticeable inflammation | 81 | significant antiinflammatory activity | effective anti-inflammatories | –
CCCCc1ccc(O)c(C(=O)Nc2cccc(C(F)(F)F)c2)c1 [S-4-F] | none of the six compounds being tested cause any noticeable inflammation | 70 | significant antiinflammatory activity | – | –
CC(=O)Oc1ccccc1C(=O)O [aspirin, acetylsalicylic acid] | – | – | – | – | LD50 (comparable toxicity of aspirin) [4]: about 1.75 g/kg. body weight
